Assay results: PMC11456916, “A screen for cell envelope stress uncovers an inhibitor of prolipoprotein diacylglyceryl transferase, Lgt, in Escherichiacoli” (iScience, 2024)
Converted amounts (≈) assume the structure as drawn. Where two headings read alike, the source gives them in different places.

Legend:
[1] = target: T1, prolipoprotein diacylglyceryl transferase, Lgt (Escherichia coli, UniProt P60955); test: In vitro Lgt biochemical assay (phosphatidylglycerol and Pal-IAAC peptide substrates); parameters: species or system E. coli
T1 construct: Expression, purification, and in vitro Lgt biochemical assay were conducted as described by Diao et al; made in house
From the text: With both genetic and phenotypic evidence supporting MAC-0452936 inhibiting Lgt in E. coli, we next investigated whether MAC-0452936 could inhibit Lgt activity in vitro. Recently, a biochemical assay for Lgt activity was developed using phosphatidylglycerol and Pal-IAAC peptide as substrates.[12] […] As similar results were obtained using two different Lgt enzyme preparations, the inhibition observed by MAC-0452936 was not dependent on the preparation of the lipid matrix. Together, we present genetic, phenotypic, and biochemical evidence that MAC-0452936 inhibits the growth of E. coli through inhibition of Lgt. MAC-0452936 represents a previously undiscovered small molecule inhibitor of bacterial Lgt, and the oxime ester represents a promising chemical scaffold for antibiotic discovery.
Expression, purification, and in vitro Lgt biochemical assay were conducted as described by Diao et al.[12]

E. coli ΔtolC-pore = test: MIC assay, E. coli ΔtolC-pore; format: cell-based; conditions: LB, 18 h
Protocol: (§1) For MIC assays, cultures of bacteria were grown in LB broth. Overnight cultures were diluted (1:100) into fresh LB media and grown to the mid-log phase of growth (OD600 ∼0.5). Subcultures were then normalized to an OD600 of 0.1, and diluted (1:5000) into assay media. Assay plates were then incubated for 18 h at 37°C, then OD600 was measured using a Biotek Neo plate reader.

E. coli BW25113 = test: MIC assay, wild-type E. coli with or without SPR741; format: cell-based; conditions: for reduction in potency relative to MAC-0452936 (1): MIC against E. coli with SPR741
Protocol: We next sought to determine whether we could achieve growth inhibition of wild-type E. coli using MAC-0452936 and an antibiotic adjuvant. […] To that end, we determined the MIC of MAC-0452936 against wild-type E. coli in the presence and absence of a sub-MIC concentration of SPR741 (Figure S8B). […] We leveraged this combination to characterize the spectrum of activity of MAC-0452936 against a panel of Gram-negative pathogens (Table 2). In the presence of 8 μg/mL SPR741, we observed MAC-0452936 activity against the clinical E. coli isolates C0244 and CFT073 at 2 μg/mL as well as against Salmonella Typhimurium SL1344 at 4 μg/mL.
as §1

[2] = system: E. coli ΔtolC-pore harboring CRISPRi plasmids targeting lgt; test: CRISPRi lgt knockdown MIC (low-copy enhancement); format: cell-based; conditions: two gRNAs targeting lgt, 100 ng/mL aTc
From the text: We next turned to genetic approaches to confirm the mechanism of action of MAC-0452936. […] To that end, we screened the E. coli CRISPRi collection in the ΔtolC-pore genetic background with a sub-inhibitory concentration of MAC-0452936 and measured the fitness of all 356 CRISPRi mutants (Figure 4C and Data S4). […] Depletion of Lgt by CRISPRi provided supporting evidence that MAC-0452936 targeted Lgt in E. coli; however, we sought to confirm this observation using a parallel genetic approach. We hypothesized that MAC-0452936 potency would also be affected by high-copy expression of lgt. To that end, we introduced either an arabinose inducible copy of lgt supplied on the pCHAP9231 plasmid[48] or the pBAD19s plasmid as a control into E. coli ΔtolC-pore and tested the potency of MAC-0452936 (Figure 4E). Induction of lgt expression with arabinose suppressed the activity of MAC-0452936 by about 8-fold. […] To test this hypothesis, we constructed E. coli ΔlgtΔtolC-pore with pCHAP9231[48] so that lgt expression was driven solely by arabinose from the plasmid. […] To test this observation with MAC-0452936, we introduced an lpp deletion into our screening strain E. coli ΔtolC-pore and assessed the activity of our Lgt inhibitor in this mutant background. […]

[3] = Lgt purified using DDM lipid matrix, read-out: in vitro Lgt inhibition DDM-Lgt IC50
[4] = Lgt purified using amphipol lipid matrix, read-out: in vitro Lgt inhibition Amph-Lgt IC50

T1 sequence (P60955 whole entry): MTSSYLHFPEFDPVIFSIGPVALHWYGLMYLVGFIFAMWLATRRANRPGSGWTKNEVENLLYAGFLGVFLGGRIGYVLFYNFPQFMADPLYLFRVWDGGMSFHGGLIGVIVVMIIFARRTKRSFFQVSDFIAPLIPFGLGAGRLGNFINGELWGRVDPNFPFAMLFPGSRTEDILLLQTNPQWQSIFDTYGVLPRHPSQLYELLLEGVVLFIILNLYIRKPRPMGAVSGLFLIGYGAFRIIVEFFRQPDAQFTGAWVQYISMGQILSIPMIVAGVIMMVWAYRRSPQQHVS

Row | SMILES | IC50 [1, 3] [µM] | IC50 [1, 4] [µM] | MIC, E. coli ΔtolC-pore (E. coli ΔtolC-pore) [µg/mL] | MIC, E. coli BW25113 (WT) + 8 μg/mL SPR741 (E. coli BW25113) [µg/mL] | reduction in potency relative to MAC-0452936 (1) (E. coli BW25113) [fold] | activity against E. coli with SPR741 (E. coli BW25113; in words) | sensitization upon depletion of Lgt with CRISPRi constructs [2]
1 | COc1cc(OC)cc(C(=O)O/N=C(\c2cccs2)C(C)(C)C)c1 [compound 7, (Z)-2-Pivaloylthiophene O-(3,5-dimethoxybenzoyl) oxime] | 58.7 | 175 | > 32 | 4 |  |  | 
2 | COc1ccc(C(=O)O/N=C(\c2cccnc2)C(C)(C)C)cc1 [compound 22, (Z)-3-Pivaloylpyridine O-(4-methoxybenzoyl) oxime] |  |  |  |  | ≥ 32 |  | 
3 | CC(C)(C)/C(=N/OC(=O)c1cccnc1)c1cccs1 [compound 3, (Z)-2-Pivaloylthiophene O-(pyridine-3-oyl) oxime] | 3.54 | 2.72 | 1 (≈ 3.47 µM) |  |  |  | 
4 | Cn1cncc1C(=O)O/N=C(\c1cccs1)C(C)(C)C [compound 5, (Z)-2-Pivaloylthiophene O-(1-methyl-1H-imidazol-5-oyl) oxime] | 7.78 | 5.91 | 4 (≈ 13.7 µM) | 4 |  |  | 
5 | COc1ccc(C(=O)O/N=C(\c2cccs2)C(C)(C)C)c(F)c1 [compound 2, (Z)-2-Pivaloylthiophene O-(2-fluoro-4-methoxybenzoyl) oxime] | 0.77 | 0.32 | 0.5 (≈ 1.49 µM) |  |  |  | 
6 | CC(C)(C)C(=NOS(N)(=O)=O)c1cccs1 [compound 17, 2-Pivaloylthiophene O-(sulfamoyl) oxime] |  |  |  |  |  | inactive | 
7 | COc1ccc(CC(=O)O/N=C(\c2cccs2)C(C)(C)C)cc1 [compound 16, (Z)-2-Pivaloylthiophene O-(2-(4-methoxyphenyl)acetyl) oxime] |  |  |  | 4 | 8 |  | 
8 | COc1ccc(C(=O)O/N=C(\c2cccs2)C(C)(C)C)cc1N [compound 6, (Z)-2-Pivaloylthiophene O-(3-amino-4-methoxybenzoyl) oxime] | 57.3 | 95.5 | 32 (≈ 96.3 µM) | 8 |  |  | 
9 | CC(C)(C)/C(=N/OC(=O)c1cncs1)c1cccs1 [compound 4, (Z)-2-Pivaloylthiophene O-(thiazol-5-ylcarbonyl) oxime] | 7.68 | 4.92 | 2 (≈ 6.79 µM) | 2 |  |  | 
10 | CO[C@H]1/C=C/O[C@@]2(C)Oc3c(C)c(O)c4c(O)c(c(/C=N/N5CCN(C)CC5)c(O)c4c3C2=O)NC(=O)/C(C)=C\C=C\[C@H](C)[C@H](O)[C@@H](C)[C@@H](O)[C@@H](C)[C@H](OC(C)=O)[C@@H]1C [Rifampicin] |  |  |  |  |  |  | not to either of the negative control antibiotics
11 | COc1ccc(C(=O)O/N=C(\c2cncs2)C(C)(C)C)cc1 [compound 20, (Z)-5-Pivaloylthiazole O-(4-methoxybenzoyl) oxime] |  |  |  |  | ≥ 32 |  | 
